Laboratory results as given in US20240238278A1, “Pharmaceutical Composition for Preventing or Treating Fibrosis” (Daewoong Pharmaceutical Co., Ltd., priority 2021, published 2024).

What was measured:
[1] = system: animal model of pulmonary fibrosis; test: Inflammation cell count analysis in BALF; format: in vivo; conditions: BLM mice, PO, day 21; first component 10 mg/kg, NIN 60 mg/kg, PID 200 mg/kg
Protocol: (§1) 70-100 uL of BLM solution (bleomycin 1-3 mg/kg) was administered to a lung of the acclimatized experimental animals using a catheter for 5 days or more. In accordance with the purpose of the test, the test drug was administered 7 days after BLM administration, and the drug was orally administered for 2 weeks until the 21st day of BLM administration.
At the sacrifice on the 21st day of administration, BALF (Bronchoalveolar lavage fluid) cells obtained through airway washing of mice were diluted with 1.05×PBS and attached to a slide, and then the slide was immersed and removed for 30 seconds in the order of 1, 2, 3 diff quick stain solution, and stained. It was counted based on 500 cells. Macrophages are the largest in size, mononuclear, and stained blue. Neutrophils and eosinophils form polynuclear cells, but eosinophils are stained red with eosin and distinguished from neutrophils. Lymphocytes have very less cytoplasm and are small in size as monocytes.

[2] = Measurement of change in body weight in BLM animal model; format: in vivo, mouse; design: unit not given here; conditions: BLM mice, first component 10 mg/kg, NIN 60 mg/kg, PID 200 mg/kg
Protocol: as §1
The body weight was measured once every 0, 7, 14, 17, and 21 days for 3 weeks, and from the 14th day when the drug effect began to be noticeable after the administration, it was measured every 3 days.

DHLF cell line = test: Non-clinical anti-fibrotic efficacy: Western blotting of TGF-β treated DHLF cell line; format: cell-based; conditions: TGF-β 10 ng/ml, 72 hours
Protocol: 10 mM of the first component was diluted with DMSO so as to be to 100 uM. It was diluted with DMSO so as to be 10, 3, 1 uM, and 10 mM of the second component (NIN) was diluted with DMSO to be 50 nM.
A DHLF cell line (FGM™-2 Bullet Kit™, 10% FBS), which is a lung fibrosis cell line, was prepared, and cultured in a T75 Easy Flask Filter at 37° C. and 5% CO2 using FBM medium. The cultured DHLF cell line was treated with 10 ng/mL of TGF-β and the test drug alone or in combination, cultured for 72 hours, then the media was removed, the protein was extracted, and the extracted protein was quantified using the BCA Protein Assay Kit. Based on the quantitative value of each extracted protein, 10 to 20 ug of protein was subjected to Western blotting. The protein after running was transferred to the PVDF membrane. After TBS-T washing 3 times, each PVDF membrane was treated with 1 mL of ECL solution, and then the protein expression level was measured using an AI680 imager. Each band value was calculated as a numerical value normalized compared to β-actin through ImageJ, and is shown in Tables 2 and 3 and FIGS. 1 and 2 below.

[3] = Pharmacokinetic test after single oral administration in ICR mice; format: in vivo; conditions: mouse, blood, ICR mice (male), 10 mg/kg
Protocol: The pharmacokinetic parameters were calculated using Excel® and WinNonlin6.1 software for the blood drug concentration according to the change over time obtained through LC-MS/MS, and changes in the blood concentration of the first component are shown in Table 11 and FIG. 9.

[4] = system: animal model of pulmonary fibrosis; test: Measurement of total collagen content in lung (INSOLUBLE Collagen Assay); format: in vivo, mouse; conditions: BLM mice, PO, day 21, n 9; first component 10 mg/kg, NIN 60 mg/kg, PID 200 mg/kg
Protocol: as §1
In this experimental example, analysis was performed using INSOLUBLE Collagen Assay (Biocolor, S2000). After sacrifice on the 21st day, the cryopreserved lung tissue was pulverized by adding 100 uL of Fragmentation Reagent, and then, 100 uL of 37% HCl was added and incubated at 65° C. for 3 hours. The contents of the tube were shaken at 30 minute intervals to aid tissue disintegration. After centrifugation, the concentration was adjusted to 100 μL and collagen staining was proceeded to prepare a sample. Absorbance was measured at 560 nm.

[5] = system: animal model of pulmonary fibrosis; test: Lung function evaluation (SpO2) in BLM animal model; format: in vivo, mouse; conditions: BLM mice, PO, day 21, first component 10 mg/kg, NIN 60 mg/kg, PID 200 mg/kg; for SpO2 Differance / SpO2 Rate of increase: vs vehicle
Protocol: as §1
This lung function evaluation is the most direct and important evaluation index that has the greatest influence on the symptoms and quality of life of patients with pulmonary fibrosis, and is an experiment that can most directly show the effect of improving lung function in an animal model of pulmonary fibrosis by measuring the oxygen concentration in the body.
On the 21st day, it was measured with a SpO2 measuring device (Berry, Veterinary Pulse Oximeter) via the abdominal side of the mouse, and the results are shown in Table 5 and FIG. 3.

[6] = system: animal model of pulmonary fibrosis; test: Histopathology (Ashcroft score) analysis, Fibrotic Index; format: in vivo, mouse; conditions: BLM mice, PO, day 21; first component 10 mg/kg, PID 200 mg/kg
Protocol: as §1
The degree of fibrosis and inflammation of the lung tissue were visually observed through a microscope, and the degree of fibrosis of lung tissue was measured with a Fibrotic Index according to normalized criteria. The higher the Fibrotic Index value, the more severe the degree and symptom of fibrosis. It is interpreted that as the value is lower, the symptom is alleviated.
On the 21st day, lung tissue was separated and stained using H&E and MT stain, and observed under a microscope at 200× magnification. The observed results were scored by Ashcroft (Hubner et al., 2008). The fibrotic index was calculated by dividing the sum of the adjusted Ashcroft field scores by the number of fields tested, and shown in Table 7 and FIG. 4.

[7] = Table 2, first component 10 ug/ml alone
[8] = Table 3, first component 5 ug/ml alone

Row | Structure (SMILES) | Eosinophil count in BALF [1] | Lymphocyte count in BALF [1] | Macrophage count in BALF [1] | Neutrophil count in BALF [1] | total cell in BALF [1] | change in body weight ([2]; Day 0) | change in body weight ([2]; Day 7) | change in body weight ([2]; Day 14) | change in body weight ([2]; Day 17) | change in body weight ([2]; Day 21) | total collagen content in lung (hydroxyproline value, ratio compared with normal group) [4] | SpO2 Average value [5] | SpO2 Differance [5] | SpO2 Rate of increase [5] [%] | Fibrotic Index (±SEM) [6] | other results
1 | O[C@H]1CCCN[C@@H]1CCCn1cnc2c(Cl)c(Cl)ccc21 [First component] | 0 | 7 | 60 | 17 | 84 10^4 | 0.0 | −10.1 | −22.7 | −22.2 | −20.5 | 228 | 79.1 | 3.1 | 4 | 4.6 (±0.6) | COL1A1 Relative value (based on control) (DHLF cell line; [7]): 3.26; SMA-α Relative value (based on control) (DHLF cell line; [7]): 1.66; COL1A1 Relative value (based on control) (DHLF cell line; [8]): 3.84; SMA-α Relative value (based on control) (DHLF cell line; [8]): 3.53; AUC(0-inf) [3]: 1190 ng·h/mL; AUC(0-t) [3]: 1070 ± 210 ng·h/mL; Cmax [3]: 263 ± 32 ng/mL; Tmax [3]: 2.67 ± 1.15 h; half-life [3]: 2.5 ± 2.48 h
2 | Cc1ccc(=O)n(-c2ccccc2)c1 [Second component (PID), Pirfenidone] | 0 | 6 | 55 | 12 | 74 10^4 | 0.0 | −10.2 | −22.7 | −18.1 | −16.5 | 156 | 81.7 | 5.7 | 7 | 3.7 (±0.7) | SpO2 Rate of increase ([5]; listed as PID): 7%
